Results published in patent US20260256922A1, “PRODRUGS USEFUL FOR REDUCING ANTHRACYCLINE CARDIOTOXICITY” (WAKE FOREST UNIVERSITY HEALTH SCIENCES, priority 2022, published 2026).

System: H9C2 cardiomyoblasts
Test: Uptake into H9C2 cardiomyoblasts by live-cell confocal microscopy
Assay type: cell-based, rat
Protocol: FIG. 4. Uptake of DOX and prodrugs c1 and c2 by H9C2 cardiomyoblasts. H9C2 cells cultures grown overnight on chambered coverslips in media with 10% serum were switched to Fluorobrite DMEM imaging media supplemented with 5% serum and prepared for live-cell imaging on a Zeiss LSM 880 confocal microscope, then 10 µM of c1, c2, or DOX was added and images were taken every 10 min (averaged every 30 min) for 18 h. Approximately 20 cells present in each field of view were averaged for each sample and time point; normalized and averaged data from two replicates each±SEM were included for c1 and DOX. An earlier independent trial yielded very similar results (Fig. S1).
Uptake of DOX and prodrugs into H9C2 cardiomyoblasts. Before comparing the biological effects of treatments by DOX and prodrugs, it was important to know their time dependence of accumulation into the H9C2 cardiomyoblasts under investigation. For this, confocal microscopy of live cells in culture was used to track in real time the accumulation of the fluorescent molecules into the cells, allowing direct comparisons between c1, c2 and Dox. […] Thus, any biological effects observed using c1 rather than DOX will not be due to limited cellular uptake.
To evaluate drug uptake, H9C2 cells were plated at a density of 20,000 per well on 24 well #1.5 polymer chambered coverslips (Ibidi) in media including 10% FBS and allowed to adhere for ~20 h. Prior to imaging analysis, the media was replaced with Fluorobrite DMEM imaging media (Gibco) supplemented with 5% FBS. To 1 mL of media in each well was added either vehicle (DMSO), or a 20 mM stock solution of c1, c2, or DOX to give final concentrations of 10 or 20 µM drug and 0.1% DMSO. […] DOX and the prodrugs were detected with excitation by a 458 nm laser at 0.3% and emission from 535-648 nm.
Each position consisted of a 3 slice z-stack that was compressed with a maximum intensity projection for analysis. […] The mean intensity for both channels was calculated, normalized, and then averaged to 30 min time points.

With `COc1cccc2c1C(=O)c1c(O)c3c(c(O)c1C2=O)C[C@@](O)(C(=O)CO)C[C@@H]3O[C@H]1C[C@H](NC(=S)OCc2ccc(B3OC(C)(C)C(C)(C)O3)cc2)[C@H](O)[C@H](C)O1` [c1] the “time to maximal signal (cell accumulation)” value (H9C2 cells, 10 μM, fluorescence) was ~ 2 h and the “accumulation in cells compared with DOX” value (imaging over 18 h) was “accumulated rapidly”.
